This is an account of results in EP0982397A1, “Inhibition of contact system activation” (Stichting Sanquin Bloedvoorziening, priority 1998, dated 2000).

Peptide text beside a SMILES is read from it.

One experiment deals with FXII. As to the kind of experiment: Binding of 125I-FXII to kaolin. The arrangement: species or system human. The procedure: • Figure 1: Effects of mAb KOK5 on activation of purified FXII. • A: Activation by kallikrein: Twenty-five µl of prewarmed FXII (125 nM), 25 µl of serial dilutions of mAb KOK5, 25 µl of prewarmed kallikrein (25 nM) and 25 µl of buffer yielding final concentrations of 50 mM Tris-HCl, 150 mM NaCl, 0.1% (wt/vol) Tween-20, pH 7.8, were incubated for 30 min at 37°C. Thereafter, 50 µl of assay mixture containing the chromogenic substrate S-2302 were added and the increase in absorbance at 405 nm at 37°C was recorded. Results are expressed as percentage of the total amount of FXII present in the mixture (as determined by limited digestion with 10 nM trypsin), and represent the mean ± SE of two experiments. […] Thereafter, 50 µl of assay mixture containing S-2302 were added and the increase in absorbance at 405 nm at 37°C was recorded. […] The reaction was stopped by adding 120 µl of stop buffer (PBS, 0.1 mg/ml SBTI, Polybrene 0.05% wt/vol) and the amount of FXIIa-C1-inhibitor (+---+), kallikrein-C1-inhibitor (o- -o) and factor XIa-C1-inhibitor (●- -●) complexes generated was measured. Results, expressed as percentage of the maximum amount of complexes generated in pooled plasma by DS500 (50 µg/ml), represent the mean values ± S.D. from three different experiments. • Figure 3. […] Binding was expressed as the percentage of the total counts that were found in the pellet in the absence of mAbs. […]

Experiment [1] has as its system contact system. Kind of experiment: Inhibition by synthetic peptides of contact system activation in EDTA-plasma induced by DS500. Type of experiment: biochemical, human. Conditions: Activator DS500. The procedure: (§1) • Figure 1: Effects of mAb KOK5 on activation of purified FXII. • A: Activation by kallikrein: Twenty-five µl of prewarmed FXII (125 nM), 25 µl of serial dilutions of mAb KOK5, 25 µl of prewarmed kallikrein (25 nM) and 25 µl of buffer yielding final concentrations of 50 mM Tris-HCl, 150 mM NaCl, 0.1% (wt/vol) Tween-20, pH 7.8, were incubated for 30 min at 37°C. Thereafter, 50 µl of assay mixture containing the chromogenic substrate S-2302 were added and the increase in absorbance at 405 nm at 37°C was recorded. Results are expressed as percentage of the total amount of FXII present in the mixture (as determined by limited digestion with 10 nM trypsin), and represent the mean ± SE of two experiments. […] Thereafter, 50 µl of assay mixture containing S-2302 were added and the increase in absorbance at 405 nm at 37°C was recorded. […] The reaction was stopped by adding 120 µl of stop buffer (PBS, 0.1 mg/ml SBTI, Polybrene 0.05% wt/vol) and the amount of FXIIa-C1-inhibitor (+---+), kallikrein-C1-inhibitor (o- -o) and factor XIa-C1-inhibitor (●- -●) complexes generated was measured. Results, expressed as percentage of the maximum amount of complexes generated in pooled plasma by DS500 (50 µg/ml), represent the mean values ± S.D. from three different experiments. • Figure 3. […] In addition 50 µl of purified FXII (500 nM) were first incubated for 2 min with kaolin and then with serial dilutions of mAb KOK5 for 15 min (+---+); whereafter the residual FXII clotting activity was measured. Results are expressed as percentage of inhibition compared to the clotting activity measured in the absence of mAbs and are the mean ± SE of two experiments. • Figure 4. […] After 10 min at room temperature tubes were centrifuged for 2 min at 10,000 g and the pellets were counted for radioactivity. Binding was expressed as the percentage of the total counts that were found in the pellet in the absence of mAbs. […] Bound FXII was detected by subsequent incubation with ^125I-anti-FXII antibodies. Results are expressed as percentage of the ^125I-anti-FXII added and represent the means of two experiments. • Figure 6. […]

The subject of experiment [2] is contact system. As to the kind of experiment: Inhibition by synthetic peptides of contact system activation in EDTA-plasma induced by kaolin. Conditions: Activator kaolin. In kind it is biochemical, human. The procedure: as §1, with “measured.” for “measured. Results, expressed as percentage of the maximum amount of complexes generated in pooled plasma by DS500 (50 µg/ml), represent the mean values ± S.D. from three different experiments. • Figure 3.”

A further experiment deals with mAb KOK5. As to the kind of experiment: cell-based or functional assay.
Where [3] appears, read: read-out: FXIIa-C1inh (IC50 values).
[4] abbreviates: read-out: FXIa-C1inh (IC50 values).
[5] abbreviates: read-out: kal-C1inh (IC50 values).

Turning to `C[C@@H](O)[C@H](NC(=O)[C@H](CS)NC(=O)[C@H](CCC(N)=O)NC(=O)[C@H](Cc1c[nH]cn1)NC(=O)[C@@H](N)CO)C(=O)N[C@@H](Cc1c[nH]cn1)C(=O)N[C@@H](CCCNC(=N)N)C(=O)N[C@@H](CCCCN)C(=O)N[C@@H](CS)C(=O)N[C@@H](Cc1ccc(O)cc1)C(=O)O` [SHQCTHRKCY] (H-SHQCTHRKCY-OH), the “IC50 relative to that of FXII itself (times higher)” value at FXII (inhibition of binding of 125I-FXII to kaolin) is 10,000 times. The IC50 at FXII (synthetic peptides, read-out: IC50, inhibition of binding of 125I-FXII to kaolin) was 0.9 mM; with contact system [1] (setting [3]), 3.15 ± 0.85 mM; with contact system [1] (setting [4]), 6.75 ± 1.25 mM; with contact system [1] (setting [5]) it was 5.25 ± 2.7 mM; with contact system [2] (setting [3]) it was 7 ± 1.4 mM; with contact system [2] (setting [4]) it was 7.5 ± 0.5 mM. Moreover, the IC50 in the experiment on contact system [2] (setting [5]) came to 6 ± 2.1 mM.

For the molecule AEGEFRFQTPQWE [synthetic peptide …], in the experiment with mAb KOK5, the inhibition of FXII activation by kallikrein in the presence of mAb KOK5 (IC50) stood at 0.05 mM.
